Measurements as given in patent US12564570B2, “Use of leoligin in the prevention of tissue damage” (UNIVERSITÄT LINZ, priority 2020, dated 2026).

Legend:
[1] = Metabolic stability assay in human liver S9 fraction; type: in vitro ADME; details: for elimination half live in liver S9: human liver S9 0.5 mg/ml, NADPH and UDPGA co-factors, 3 μM compound, 37° C., HPLC, first order kinetic
Text: To gain insights into the enzymatic stability of a drug, the metabolic stability assay serves as an effective tool and also helps to separate applicable routes for drug uptake from less applicable ones e.g. due to fast hepatic clearance. When substances are applied orally, the liver clearance (first-pass effect) has the most influence on drug clearance and further on the amount of active drug reaching the site of action. Thus, in order to test hepatic clearance, 5-ML was exposed to subcellular fractions of liver and compound concentrations were assessed in a time-dependent manner.
The concept of in vitro metabolic stability testing is based on and predicts well liver metabolic clearance in vivo. Therefore, the subcellular fraction which accounts for most of the enzymatic activity of the organ is used, which contains intra and extra cellular enzymes of the liver. The elimination half live of 5-ML was calculated by the assessment of the elimination constant.
(§1) For the organ specific enzymatic degradation of a compound a reaction mix (1 ml) was made, and aliquots (50 μl) were taken at the timepoints indicated in the Figures to calculate the elimination constant by measuring the compound concentration over time using HPLC-based quantification.
(§2) The reaction mix contains: • Subcellular fraction of the specific organ (Liver S9, Lung microsomes, or Saliva), • Co-Factor Solution (NADPH and UDPGA). Co-factors are used in this assay to activate the enzymatic activity of the main metabolizing enzymes of the organ specific subcellular fractions. NADPH is needed for the Phase I oxidation where Cytochrome P450 […] accounts for the most and UDPGA is needed for the Phase II glucuronidation, • and the desired compound: 5-ML as active ingredient, Diclofenac as control, water as control; diluted in DMSO.
All compounds were tested in triplicates, except the solvent control (water instead of active compound 5-ML). […]

[2] = Metabolic stability assay in pooled human lung microsomes; type: in vitro ADME; details: pooled human lung microsomes with co-factors; also printed as 23.1 h
Protocol: as §1, §2
(§3) Preparation of the reaction mix (in Triplicates): • Take 980 μl organ specific subcellular fraction solution (0.5 mg/ml) of human liver S9 fraction in DPBS with Calcium and Magnesium, • Add 10 μl of substance stock solution dissolved in DMSO (c 0,003 M) from either 5-ML, Diclofenac or water as solvent control. […] Cells 2020, 9, 2048).
Next, 5-ML was exposed to lung microsomes (drug delivery by inhalation).
Materials & Methods are the same as in Example 4, except that lung microsomes were used instead of S9 liver fraction.

[3] = Metabolic stability assay in pooled human saliva; type: in vitro ADME
Protocol: as §1, §2, §3
Materials & Methods are the same as in Example 4, except that pooled human saliva was used instead of S9 liver fraction. […]

[4] = system: myocardial infarction rat model; details: direct injection into the peri-infarction zone; cited from earlier work
[5] = system: myocardial infarction in mice; details: after induction of MI in mice, 10 injections per heart directly into the infarction zone; cited from earlier work
[6] = system: ATRA-signalling; details: Danzl et al. 2019; cited from earlier work
[7] = literature value; cited from earlier work

SMILES	elimination half live in liver S9 [1] [min]	elimination constant of exponential first order kinetic ([1]; human liver S9, Ln(2)/k gives half live, time axis in minutes, in min-1)	elimination half live in lung microsomes [2] [min]	elimination in saliva with co-factors ([3]; with co-factors (NADPH and UDPGA))	elimination half-life in saliva without co-factor ([3]; without co-factor solution) [h]	arteriogenesis in vivo [4]	infarction area [5]	inhibition of ATRA-signalling [6]	estimated half live in human liver in literature [7] [h]
C/C=C(/C)C(=O)OC[C@H]1[C@@H](Cc2ccc(OC)c(OC)c2)CO[C@@H]1c1cc(OC)c(OC)c(OC)c1 [5-ML]	10.66	0,065	1386	no elimination	115.5	induced arteriogenesis	reduces the infarction area	capable of inhibiting ATRA-signalling	
O=C(O)Cc1ccccc1Nc1c(Cl)cccc1Cl [diclofenac, reference compound]	173								1 to 3
